# Values quoted from earlier work, collected in patent US20140179719A1, “NOVEL AMORPHOUS SOLID DISPERSIONS OF VALGANCICLOVIR HYDROCHLORIDE” (priority 2012, published 2014).
# Like-named read-outs stand apart in the source and are kept apart here.
# Conditions: ganciclovir administered orally
smiles,measurement,setting,value
Nc1nc(O)c2ncn(COC(CO)CO)c2n1 [Ganciclovir],"bioavailability of ganciclovir, oral formulation",,6-10%
same,"bioavailability of ganciclovir, oral formulation",listed as gancilcovir,6%
